# How the values were obtained:
# [1] = Fluorescence emission studies for HNO detection in aq. PBS buffer-CH3CN
# Experimental: The spectroscopic properties of ER-HNO in aq. PBS buffer medium under physiological pH medium. No significant difference is observed in the electronic spectra of ER-HNO and ER-S. In order to check the response of ER-HNO probe (10 uM) with in presence of 20 mole equivalent of various ROS and RNS (HNO, HOCl, H2O2, —OH, TBHP, NO3^−, NO2^−, benzoyl peroxide, S^2− and ascorbate) emission spectra are recorded in aq. […] A turn ON emission response is observed for probe ER-HNO, only in presence of HNO with λEms^Max=580 nm (λExt=530 nm). Moreover, no significant changes are observed in presence of different anionic, cationic as well as biothiols under identical experimental condition. The effects of pH on emission spectrum of probe ER-HNO is also investigated. […] Therefore, to explore the bio analytical application, all the studies are carried out at physiological pH medium.
# An enhancement in emission signal are observed at λMax=586 nm (Φ=0.105, for λExt=530 nm) with gradual increasing [HNO] (FIG. 1B). A good linearity is observed between emission intensity and concentration of HNO in the range of 2-15 uM, with a lower detection limit of 2 μM. […] PBS buffer medium.
# Stock solution of probe ER-HNO (1×10^−4M) was prepared in HPLC grade acetonitrile. All the analytes stock solution (1×10^−2M) was prepared in aqueous HEPES buffer (10 mM) medium at pH 7.2. […]
# [2] = system: Hct116 cells; assay: CLSM imaging of HNO in Hct116 cells; format: cell-based; conditions: Hct116, probe 1 μM 15 min, then HNO 20 μM
# Experimental: (§1) An MTT assay confirmed the non-toxic nature of probe ER-HNO towards live Hct116. Therefore, ER-HNO is tested as an imaging reagent for the detection of HNO in Hct116 colon cancer. The cells are incubated with probe ER-HNO (1 μM) for 15 min at 37° C. in acetonitrile-PBS buffer (0.2:99.8, v/v) at pH 7.2 and no intracellular fluorescence is observed.
# For confocal studies, Hct116 cells (3×10^5) were seeded on cover slips placed in 6 well plates. After 24 hours, Hct116 cells were treated with ER-HNO (1 μM) for 30 minutes at 37° C. in a 5% CO2 air environment. Cells were then washed thrice with Phosphate Buffer (1×PBS) and fixed with 4% PFA for 20 minutes and washed again with IX PBS. Nail paint was used to seal the cover slips mounted on the glass slides for each well plates. Again Hct116 cells were pre-treated with ER-HNO (1 μM) for 15 minutes, then Hct116 cells were further expose to Angeli's salt (HNO donor), then cells were washed thrice with media and followed by incubation with ER-HNO (1 μM) for another 15 minutes under same conditions. Cells were again washed with 1×PBS buffer and fixed with 4% PFA for 20 minutes and washed again with 1×PBS. Confocal laser scanning microscopic (CLSM) images were acquired in Olympus Fluoview Microscope with λExt/λMon=530/573 nm.
# [3] = system: RAW 264.7 cells; assay: CLSM imaging of HNO in RAW 264.7 cells; format: cell-based; conditions: RAW 264.7, probe 1.0 μM 15 min 37° C., then AS
# Experimental: The toxicity of the probe molecule toward live RAW 264.7 macrophages cells and cytotoxicity assays confirmed the low toxicity of the probe. The results encouraged to explore the use of the probe as an imaging reagent for the intracellular detection of HNO in these macrophage cells. Cells in DMEM culture media are incubated with ER-HNO (1.0 μM) for 15 min at 37° C. and subsequently viewed under confocal laser scanning microscope (CLSM) using a 530 nm laser as an excitation source.
# RAW 264.7 cells were seeded on cover slips placed in 6 well plates. After 24 hours cells washed with DMEM medium then cells were treated with ER-HNO (1 μM) for 25 minutes. Cells were then washed thrice with culture medium and further treated with Angeli's salt (HNO donor) of different concentration for 30 min. After that cells were washed again with Phosphate Buffer Saline (3×PBS). Then cells were fixed with 4% PFA for 10 min. Again cells were washed thrice and then cover slips mounted using mounting medium. Nail paints was used to seal the coverslips mounted on the glass slides. Images were acquired by using Olympus FluoView FV-1000 Confocal Microscope.
# RAW 264.7 cells were seeded on Coverslips (22 mm×22 mm, 170±5 μm square Cover glasses) placed in 6-well plates in DMEM culture medium containing (10% FBS and 1% penicillin-streptomycin) for 24 h at 37° C. 5% CO2. […]
# [4] = system: SERCA2; assay: Western blot monitoring of SERCA2; format: cell-based; conditions: HCT116 cells, Angeli's salt 10 uM, ER-HNO 30 μM, 24 hrs
# Experimental: HCT116 cells were cultured in DMEM medium containing 10% Fetal Bovine Serum (FBS) supplemented with 100 Units of Penicillin Streptomycin antibiotics. Cells were treated with Angeli's salt 10 uM, ER-HNO 30 μM or both for 24 hrs. Prior to the treatment processes, DMEM medium was treated with N-Ethylmalemide (NEM) 1 mM and this medium was used to culture the cells. Post 24 hrs cells harvested and whole cell lysate proteins extracted. 40 ug of the proteins were resolved in SDS PAGE gel and transferred into PVDF membrane using Western Blot methods. The blot was over-night blocked with 5% Bovine Serum Albumin (BSA) at 4° C. 1:4000 dilution of SERCA2 antibody was to probe the blot for 2 hrs at room-temperature (RT). After three washes with 1×TBST, 1:4000 dilution of anti-rabbit HRP conjugated antibody was used to probe the blot for 1 hr at RT. After three washes with IX TBST, the blot was developed using auto-radiography in X-ray film.
# [5] = system: RAW 264.7 cells; assay: MTT assay, in vitro cytotoxicity on RAW 264.7 cells; format: cell-based
# Experimental: The in vitro cytotoxicity of ER-HNO on RAW 264.7 cells were determined by conventional MTT (3-(4, 5-Dimethylthiazol-2-yl)-2, 5-diphenyltetrazolium bromide) assay. RAW 264.7 cells (5×103) were seeded in each well of a 96 well plate and cultured in a 37° C. incubator supplied with 5% CO2. Cells were maintained in DMEM medium, supplemented with 10% Foetal Bovine Serum and 100 Units of Penicillin Streptomycin antibiotics. After 24 hours the cells were treated with different concentrations of the ER-HNO in triplicates for 24 hours. After the treatment, cells were added with […] of MTT reagent. The plate was then incubated for 4 hours at 37° C. 100 μl of Isopropyl Alcohol was added to each well. Optical density was measured at 570 nm using Multiskan Go (Thermo Scientific) to find the concentration of the cell inhibition. IC50 value has been calculated to be 90 μM.
# The formula used for the calculation of the MTT assay for evaluation of the cell viability was as follows:
# Cell viability (%)=(Means of absorbance value of treated group/Means of absorbance value of untreated control)×100.
# [6] = system: Hct116 cells; assay: Flow cytometry, DCFDA staining; format: cell-based; conditions: Angeli's salt 10 uM, 30 uM probe, 2 hrs
# Experimental: For DCFDA staining, HCT116 cells were cultured in DMEM medium containing 5 mM glucose supplemented with 10% FBS and 100 Units of antibiotics. Prior to the treatment processes, DMEM medium with 1% FBS was treated with N-Ethylmalemide (NEM) 1 mM and this medium was used to culture the cells further. Cells were treated with Angeli's salt 10 uM, L 30 uM or both for 2 hrs. After treatment cells were harvested by trypsinization and washed with complete DMEM media by centrifugation. Pellet was suspended in 1 ml of PBS buffer. 10 μM DCFDA (Sigma) was added to cells followed by incubation at 37° C. 5% CO2 incubator for 45 mins. DCFDA stained cells were analyzed in BD FACS Canto II using FITC channel. For Annexin V staining cultured HCT116 cells were harvested after trypsinization and washed with 1×PBS buffer. 500 ul of Annexin V binding buffer was used to re-suspend the cells. 5 ul of Annexin-V FITC antibody added to the re-suspended cell and incubated in dark for 5 mins. Antibody stained cells were then analyzed using BD Calibur FACs in FITC channel. The flow cytometry experiment confirmed that probe ER-HNO is capable of reducing RNS & ROS level induced by HNO [FIG. 5 (b)].
# [7] = system: Artemia nauplii; assay: Fluorescence imaging of Artemia nauplii; format: in vivo; conditions: probe 1 μM 30 minutes, then HNO
# Experimental: Imaging of Artemia nauplii by luminescence was performed using a fluorescence microscope with a 20×, 0.4 NA microscope objective (Olympus), coupled to an intensified CCD camera. The Artemia nauplii were imaged in both bright-field and epifluorescence geometries. The latter was enabled by a fluorescence filter set. The illumination intensity was about 10 W/mm^2.
# [8] = system: Hct116 cells; assay: MTT assay towards live Hct116; format: cell-based
# Experimental: as §1
substance,measurement,setting,value
"(E)-4-(2-(5,5-difluoro-1,7,9-trimethyl-10-phenyl-5H-5l4,6l4-dipyrrolo[1,2-c:2′,1′-f][1,3,2]diazaborinin-3-yl)vinyl)phenyl 2-(diphenylphosphanyl)benzoate [ER-HNO]",emission intensity of the probe within pH range 4-10,[1]; pH 4-10,remains unaltered
same,change in emission intensity in presence of other ROS/RNS (selectivity),"[1]; probe 10 uM, 20 mole equivalent of HOCl, H2O2, OH, TBHP, NO3-, NO2-, benzoyl peroxide, S2-, ascorbate",no change in emission intensity
same,intracellular fluorescence after HNO exposure,[2],strong intracellular fluorescence
same,intracellular fluorescence after exposure to AS,[3],strong intracellular fluorescence
same,counteraction of the stabilized expression of SERCA2,[4],at least 50%
same,IC50,"[5]; RAW 264.7 cells, 24 hours treatment, read-out: IC50 (MTT cell viability)",90 µM
same,toxicity toward live RAW 264.7 macrophages cells,[5]; cytotoxicity assays,low toxicity
same,RNS induced by Angeli's Salt (DCFDA staining),[6],reduced
same,fluorescence in Artemia nauplii on exposure to HNO,[7],strong fluorescence
same,toxicity towards live Hct116 (MTT assay),[8],non-toxic

# From patent US20210402011A1, “A COMPOUND FOR THE DETECTION OF HNO IN BIOLOGICAL SYSTEMS” (COUNCIL. OF SCIENTIFIC AND INDUSTRIAL RESEARCH, priority 2016, published 2021)
